{
  "source": "patent US20070202116A1",
  "about": "“Treatment of micro-organism infection” (priority 2001, published 2007)",
  "key": {"[1]": {"test_system": "EMRSA strains", "experiment": "MIC of vancomycin or flucloxacillin with and without Aurograb (Table 3a)", "type": "cell-based, S. aureus", "conditions": "Staphylococcus aureus", "procedure": "(§1) Strains of MRSA were grown overnight in nutrient broth and diluted to give an inoculum of 1×10^3 cells per mL. […] Cultures were incubated for a further 2 days. The minimum growth-inhibitory concentration (MIC) is defined as the […] concentration of antibiotic at which no bacterial growth occurs and is determined by spectrophotometric evaluation of the lack of turbidity (growth) in culture. MICs were determined in the presence of exogenous Aurograb or in the presence of Aurograb formulation buffer (negative control).\nThe experiments were also performed using flucloxacillin instead of vancomycin to investigate how the efficacy of penicillin-type […] was affected by Aurograb."}, "[2]": {"test_system": "MRSA strains (VISA and parent EMRSA-15)", "experiment": "MIC of vancomycin in the presence of Aurograb (Table 3)", "type": "cell-based, S. aureus", "conditions": "Staphylococcus aureus", "procedure": "as §1"}},
  "note": "Where two headings read alike, the source gives them in different places.",
  "data": [
    {"smiles": "CN[C@H](CC(C)C)C(=O)N[C@H]1C(=O)N[C@@H](CC(N)=O)C(=O)N[C@H]2C(=O)N[C@H]3C(=O)N[C@H](C(=O)N[C@H](C(=O)O)c4cc(O)cc(O)c4-c4cc3ccc4O)[C@H](O)c3ccc(c(Cl)c3)Oc3cc2cc(c3O[C@@H]2O[C@H](CO)[C@@H](O)[C@H](O)[C@H]2O[C@H]2C[C@](C)(N)[C@H](O)[C@H](C)O2)Oc2ccc(cc2Cl)[C@H]1O", "note": "[Vancomycin, vancomycin]", "values": [
      {"measurement": "MIC", "setting": "[1]; read-out: MIC to vancomycin + 100 μg/ml Aurograb, EMRSA strain 1, + 100 μg/ml Aurograb", "result": 0.03, "unit": "µg/mL"},
      {"measurement": "MIC", "setting": "[1]; read-out: MIC to vancomycin + 100 μg/ml Aurograb, EMRSA strain 2, + 100 μg/ml Aurograb", "result": 0.03, "unit": "µg/mL"},
      {"measurement": "MIC", "setting": "[1]; read-out: MIC to vancomycin + 100 μg/ml Aurograb, EMRSA strain 3, + 100 μg/ml Aurograb", "result": 0.03, "unit": "µg/mL"},
      {"measurement": "MIC", "setting": "[1]; read-out: MIC to vancomycin + 100 μg/ml Aurograb, EMRSA strain 4, + 100 μg/ml Aurograb", "result": 0.03, "unit": "µg/mL"},
      {"measurement": "MIC", "setting": "[1]; read-out: MIC to vancomycin + 100 μg/ml Aurograb, EMRSA strain 5, + 100 μg/ml Aurograb", "result": 0.03, "unit": "µg/mL"},
      {"measurement": "MIC", "setting": "[1]; read-out: MIC to vancomycin + 100 μg/ml Aurograb, EMRSA strain 6, + 100 μg/ml Aurograb", "result": 0.0125, "unit": "µg/mL"},
      {"measurement": "MIC", "setting": "[1]; read-out: MIC to vancomycin + 100 μg/ml Aurograb, EMRSA strain 7, + 100 μg/ml Aurograb", "result": 0.03, "unit": "µg/mL"},
      {"measurement": "MIC", "setting": "[1]; read-out: MIC to vancomycin + 100 μg/ml Aurograb, EMRSA strain 8, + 100 μg/ml Aurograb", "result": 0.0125, "unit": "µg/mL"},
      {"measurement": "MIC", "setting": "[1]; read-out: MIC to vancomycin + 100 μg/ml Aurograb, EMRSA strain 9, + 100 μg/ml Aurograb", "result": 0.0125, "unit": "µg/mL"},
      {"measurement": "MIC", "setting": "[1]; read-out: MIC to vancomycin + 100 μg/ml Aurograb, EMRSA strain 10, + 100 μg/ml Aurograb", "result": 0.03, "unit": "µg/mL"},
      {"measurement": "MIC", "setting": "[1]; read-out: MIC to vancomycin + 100 μg/ml Aurograb, EMRSA strain 11, + 100 μg/ml Aurograb", "result": 0.03, "unit": "µg/mL"},
      {"measurement": "MIC", "setting": "[1]; read-out: MIC to vancomycin + 100 μg/ml Aurograb, EMRSA strain 12, + 100 μg/ml Aurograb", "result": 0.03, "unit": "µg/mL"},
      {"measurement": "MIC", "setting": "[1]; read-out: MIC to vancomycin + 100 μg/ml Aurograb, EMRSA strain 13, + 100 μg/ml Aurograb", "result": 0.03, "unit": "µg/mL"},
      {"measurement": "MIC", "setting": "[1]; read-out: MIC to vancomycin + 100 μg/ml Aurograb, EMRSA strain 14, + 100 μg/ml Aurograb", "result": 0.03, "unit": "µg/mL"},
      {"measurement": "MIC", "setting": "[1]; read-out: MIC to vancomycin + 100 μg/ml Aurograb, EMRSA strain 15, + 100 μg/ml Aurograb", "result": 0.03, "unit": "µg/mL"},
      {"measurement": "MIC", "setting": "[1]; read-out: MIC to vancomycin + 100 μg/ml Aurograb, EMRSA strain 16, + 100 μg/ml Aurograb", "result": 0.03, "unit": "µg/mL"},
      {"measurement": "MIC", "setting": "[1]; read-out: MIC to vancomycin, EMRSA strain 1", "result": 0.5, "unit": "µg/mL"},
      {"measurement": "MIC", "setting": "[1]; read-out: MIC to vancomycin, EMRSA strain 2", "result": 0.5, "unit": "µg/mL"},
      {"measurement": "MIC", "setting": "[1]; read-out: MIC to vancomycin, EMRSA strain 3", "result": 0.5, "unit": "µg/mL"},
      {"measurement": "MIC", "setting": "[1]; read-out: MIC to vancomycin, EMRSA strain 4", "result": 0.5, "unit": "µg/mL"},
      {"measurement": "MIC", "setting": "[1]; read-out: MIC to vancomycin, EMRSA strain 5", "result": 0.5, "unit": "µg/mL"},
      {"measurement": "MIC", "setting": "[1]; read-out: MIC to vancomycin, EMRSA strain 6", "result": 0.5, "unit": "µg/mL"},
      {"measurement": "MIC", "setting": "[1]; read-out: MIC to vancomycin, EMRSA strain 7", "result": 0.5, "unit": "µg/mL"},
      {"measurement": "MIC", "setting": "[1]; read-out: MIC to vancomycin, EMRSA strain 8", "result": 0.5, "unit": "µg/mL"},
      {"measurement": "MIC", "setting": "[1]; read-out: MIC to vancomycin, EMRSA strain 9", "result": 0.5, "unit": "µg/mL"},
      {"measurement": "MIC", "setting": "[1]; read-out: MIC to vancomycin, EMRSA strain 10", "result": 0.5, "unit": "µg/mL"},
      {"measurement": "MIC", "setting": "[1]; read-out: MIC to vancomycin, EMRSA strain 11", "result": 0.5, "unit": "µg/mL"},
      {"measurement": "MIC", "setting": "[1]; read-out: MIC to vancomycin, EMRSA strain 12", "result": 0.5, "unit": "µg/mL"},
      {"measurement": "MIC", "setting": "[1]; read-out: MIC to vancomycin, EMRSA strain 13", "result": 0.5, "unit": "µg/mL"},
      {"measurement": "MIC", "setting": "[1]; read-out: MIC to vancomycin, EMRSA strain 14", "result": 0.25, "unit": "µg/mL"},
      {"measurement": "MIC", "setting": "[1]; read-out: MIC to vancomycin, EMRSA strain 15", "result": 0.5, "unit": "µg/mL"},
      {"measurement": "MIC", "setting": "[1]; read-out: MIC to vancomycin, EMRSA strain 16", "result": 0.5, "unit": "µg/mL"},
      {"measurement": "MIC", "setting": "[2]; read-out: MIC to Vancomycin in the presence of Aurograb, Parent EMRSA-15, Aurograb 0 μg/ml", "result": 1, "unit": "µg/mL"},
      {"measurement": "MIC", "setting": "[2]; read-out: MIC to Vancomycin in the presence of Aurograb, Parent EMRSA-15, Aurograb 80 μg/ml", "result": 0.25, "unit": "µg/mL"},
      {"measurement": "MIC", "setting": "[2]; read-out: MIC to Vancomycin in the presence of Aurograb, Parent EMRSA-15, Aurograb 125 μg/ml", "result": "< 0.125", "unit": "µg/mL"},
      {"measurement": "MIC", "setting": "[2]; read-out: MIC to Vancomycin in the presence of Aurograb, VISA EMRSA-1, Aurograb 0 μg/ml", "result": 8, "unit": "µg/mL"},
      {"measurement": "MIC", "setting": "[2]; read-out: MIC to Vancomycin in the presence of Aurograb, VISA EMRSA-1, Aurograb 60 μg/ml", "result": 4, "unit": "µg/mL"},
      {"measurement": "MIC", "setting": "[2]; read-out: MIC to Vancomycin in the presence of Aurograb, VISA EMRSA-1, Aurograb 80 μg/ml", "result": 2, "unit": "µg/mL"},
      {"measurement": "MIC", "setting": "[2]; read-out: MIC to Vancomycin in the presence of Aurograb, VISA EMRSA-1, Aurograb 125 μg/ml", "result": "< 0.125", "unit": "µg/mL"},
      {"measurement": "MIC", "setting": "[2]; read-out: MIC to Vancomycin in the presence of Aurograb, VISA EMRSA-2, Aurograb 0 μg/ml", "result": 4, "unit": "µg/mL"},
      {"measurement": "MIC", "setting": "[2]; read-out: MIC to Vancomycin in the presence of Aurograb, VISA EMRSA-2, Aurograb 60 μg/ml", "result": 0.5, "unit": "µg/mL"},
      {"measurement": "MIC", "setting": "[2]; read-out: MIC to Vancomycin in the presence of Aurograb, VISA EMRSA-2, Aurograb 80 μg/ml", "result": 1, "unit": "µg/mL"},
      {"measurement": "MIC", "setting": "[2]; read-out: MIC to Vancomycin in the presence of Aurograb, VISA EMRSA-2, Aurograb 125 μg/ml", "result": "< 0.125", "unit": "µg/mL"},
      {"measurement": "MIC", "setting": "[2]; read-out: MIC to Vancomycin in the presence of Aurograb, VISA EMRSA-8, Aurograb 0 μg/ml", "result": 8, "unit": "µg/mL"},
      {"measurement": "MIC", "setting": "[2]; read-out: MIC to Vancomycin in the presence of Aurograb, VISA EMRSA-8, Aurograb 60 μg/ml", "result": 2, "unit": "µg/mL"},
      {"measurement": "MIC", "setting": "[2]; read-out: MIC to Vancomycin in the presence of Aurograb, VISA EMRSA-8, Aurograb 80 μg/ml", "result": 1, "unit": "µg/mL"},
      {"measurement": "MIC", "setting": "[2]; read-out: MIC to Vancomycin in the presence of Aurograb, VISA EMRSA-8, Aurograb 125 μg/ml", "result": "< 0.125", "unit": "µg/mL"},
      {"measurement": "MIC", "setting": "[2]; read-out: MIC to Vancomycin in the presence of Aurograb, VISA EMRSA-11, Aurograb 0 μg/ml", "result": 4, "unit": "µg/mL"},
      {"measurement": "MIC", "setting": "[2]; read-out: MIC to Vancomycin in the presence of Aurograb, VISA EMRSA-11, Aurograb 60 μg/ml", "result": 4, "unit": "µg/mL"},
      {"measurement": "MIC", "setting": "[2]; read-out: MIC to Vancomycin in the presence of Aurograb, VISA EMRSA-11, Aurograb 80 μg/ml", "result": 1, "unit": "µg/mL"},
      {"measurement": "MIC", "setting": "[2]; read-out: MIC to Vancomycin in the presence of Aurograb, VISA EMRSA-11, Aurograb 125 μg/ml", "result": "< 0.125", "unit": "µg/mL"},
      {"measurement": "MIC", "setting": "[2]; read-out: MIC to Vancomycin in the presence of Aurograb, VISA EMRSA-12, Aurograb 0 μg/ml", "result": 8, "unit": "µg/mL"},
      {"measurement": "MIC", "setting": "[2]; read-out: MIC to Vancomycin in the presence of Aurograb, VISA EMRSA-12, Aurograb 60 μg/ml", "result": 4, "unit": "µg/mL"},
      {"measurement": "MIC", "setting": "[2]; read-out: MIC to Vancomycin in the presence of Aurograb, VISA EMRSA-12, Aurograb 80 μg/ml", "result": 2, "unit": "µg/mL"},
      {"measurement": "MIC", "setting": "[2]; read-out: MIC to Vancomycin in the presence of Aurograb, VISA EMRSA-12, Aurograb 125 μg/ml", "result": "< 0.125", "unit": "µg/mL"},
      {"measurement": "MIC", "setting": "[2]; read-out: MIC to Vancomycin in the presence of Aurograb, VISA EMRSA-15, Aurograb 0 μg/ml", "result": 8, "unit": "µg/mL"},
      {"measurement": "MIC", "setting": "[2]; read-out: MIC to Vancomycin in the presence of Aurograb, VISA EMRSA-15, Aurograb 60 μg/ml", "result": 4, "unit": "µg/mL"},
      {"measurement": "MIC", "setting": "[2]; read-out: MIC to Vancomycin in the presence of Aurograb, VISA EMRSA-15, Aurograb 80 μg/ml", "result": 2, "unit": "µg/mL"},
      {"measurement": "MIC", "setting": "[2]; read-out: MIC to Vancomycin in the presence of Aurograb, VISA EMRSA-15, Aurograb 125 μg/ml", "result": "< 0.125", "unit": "µg/mL"}
    ]}
  ]
}
